Results on 2 molecules are retold here after PMC12736958 (Pharmaceutics, 2025).

The nature of data set [1]: in vivo pharmacokinetic study in rats. Also on record: species or system Sprague-Dawley (SD) rats. Particulars: rat; for plasma concentration of Cur, individual animals: Rat1-Rat5, listed as Intravenous Cur. As for the experimental part:
Male Sprague-Dawley (SD) rats (200 ± 20 g) were supplied by SPF Biotechnology Co., Ltd. (Beijing, China) and housed under standard laboratory conditions throughout the study. All animals were housed in a controlled environment (22 ± 2 °C, 55 ± 10% humidity) under a 12/12 h light/dark cycle, with free access to a standard laboratory rodent diet and water. A 12 h fasting period was implemented prior to the experiment, with water permitted ad libitum. All animal procedures were performed in strict accordance with protocols approved by the Biological and Medical Ethics Committee of Minzu University of China.
After fasting for 12 h (with free access to water), SD rats (n = 25) were randomly divided into five groups (n = 5 per group). Group 1: crystalline Cur (i.v., dissolved in saline with 5% DMSO). Group 2: crystalline Cur (p.o., suspended in 0.5% CMC-Na). Group 3: Cur/P188 ASD (1:8, w/w; p.o.). Group 4: Cur/P188/TW80 ASD (1:8:1, w/w/w; p.o.). Group 5: Cur/P188/SLS ASD (1:8:1, w/w/w; p.o.). Group 1 received the formulation via tail vein injection, while Groups 2–5 were suspended in water (pH 7.0) and administered orally by gavage at a Cur-equivalent dose of 40 mg/kg. Blood samples (0.2 mL) were collected from each rat at 4, 7, 10, 20, and 30 min, and 1, 2, 4, and 24 h post-dosing. Plasma was separated by centrifugation (5000 rpm, 5 min, 4 °C) and stored at −80 °C until analysis.
Cur was extracted from 50 μL of plasma using 600 μL of ethyl acetate and quantified by LC-MS/MS, with diclofenac sodium (20 μL, 200 ng/mL) serving as the internal standard. Blank plasma was obtained from a separate control group (n = 5) that received water only. Analysis of these blank samples confirmed the absence of significant matrix interference, thereby validating the analytical method.
Cur quantification in cellular and rat plasma samples was carried out using a SCIEX QTRAP® 5500 LC-MS/MS system coupled with a SCIEX ExionLC^TM AC system (AB SCIEX, Framingham, MA, USA).
Separation was achieved on an Acquity UPLC® BEH C18 column (100 × 2.1 mm, 1.7 μm; Waters) maintained at 40 °C. The mobile phase consisted of (A) 0.1% formic acid in water and (B) acetonitrile (ACN), delivered at a flow rate of 0.14 mL/min with the following gradient program: 10% B (0–1.0 min), increased to 95% B (1.0–9.0 min), and returned to 10% B (9.0–12.0 min). The injection volume was 5 μL. The retention times were approximately 4.85 min for Cur and 6.70 min for diclofenac sodium, used as the internal standard (IS).
Mass spectrometric detection was performed using an IonDrive^TM Turbo V ion (SCIEX, Framingham, MA, USA) source operating in negative electrospray ionization (ESI) mode. Quantification was conducted via multiple reaction monitoring (MRM) at m/z 367.1→133.9 for Cur, and m/z 294.1→250.0 for diclofenac sodium (IS). The assay was linear over the concentration range of 2-500 ng/mL (R^2 > 0.999). All data were acquired in triplicate (n = 3) and processed using MultiQuant software version 3.0.2 (AB SCIEX).
Pharmacokinetic parameters were calculated using non-compartmental analysis with DAS 2.0 software (Boying Corporation, Beijing, China). Data analysis was performed using GraphPad Prism 10.1.2 software. The result is expressed as mean ± standard deviation (SD). For pairwise comparisons between groups, t-tests were conducted. For multiple group comparisons, one-way analysis of variance (ANOVA) was performed, followed by Tukey’s post hoc test for multiple comparisons. Prior to ANOVA, the assumptions of normality and homogeneity of variances were verified using the Shapiro–Wilk test and Bartlett’s test, respectively. p < 0.05 indicates statistically significant differences.

For data set [2] the following is noted: cited from earlier work.
Data set [3] can be described thus: equilibrium solubility of crystalline Cur in excipient solutions. It counts as physicochemical. Particulars: pure water, pH 7.0, 37 °C, filtered 0.22 μm, read-out: equilibrium solubility (Cur con.). As for the experimental part:
Excess crystalline Cur was suspended in each solution, vortexed (1 min), sonicated (10 min), and incubated (37 °C, 24 h). After incubation, suspensions were filtered (0.22 μm), and Cur concentration in the filtrate was quantified using HPLC/UV-Vis (HPLC/UV-Vis Method section). All experiments were performed in quadruplicate (n = 4).
Cur content in in vitro dissolution samples was quantified using a Waters 2695 Alliance HPLC system (Waters Corporation, Milford, MA, USA) equipped with a Waters 2998 photodiode array (PDA) detector. Separation was performed on an XBridge® C18 column (4.6 × 250 mm, 5.0 μm; Waters) maintained at 25 °C. The mobile phase, composed of water and methanol (80:20, v/v), was delivered isocratically at a flow rate of 1.0 mL/min. The injection volume was 10 μL, and detection was performed at 430 nm, and Cur eluted at approximately 4.80 min. […] All data were acquired in triplicate (n = 3) and processed using Empower®3 Software (Waters).

Where [4] appears, read: male, Sprague-Dawley, plasma, iv, 40 mg/kg Cur-equivalent.

Each structure is given as a SMILES string. “And” between values parts separate entries of the source, which are not always exact repeats. Identical values can stand only once. Some results are limits rather than exact numbers.

Consider `COc1cc(/C=C/C(=O)CC(=O)/C=C/c2ccc(O)c(OC)c2)ccc1O` [Solution Cur, Curcumin], for which the highest concentration (Cmax) in data set [1] (setting [4]) worked out at 334 ± 9.6 ng/mL. Moreover, the time of peak concentration (Tmax) in data set [1] (setting [4]) stood at 6 min. For the same molecule, the half-life in data set [1] (setting [4]) is 1.8 ± 0.2 h. Also, the MRT last in data set [1] (male, Sprague-Dawley, plasma, iv, i.v., 40 mg/kg Cur-equivalent, read-out: MRT(0–24)) was 5.2 ± 0.2 h. Also, the concentration at 0.07 h in data set [1] (male, Sprague-Dawley, plasma, iv, 40 mg/kg, i.v., 40 mg/kg, 0.07 h, Rat1-Rat5, read-out: plasma concentration of Cur, individual animals) amounted to 331 ng/mL. In addition, the concentration at 0.12 h in data set [1] (male, Sprague-Dawley, plasma, iv, 40 mg/kg, i.v., 40 mg/kg, 0.12 h, Rat1-Rat5, read-out: plasma concentration of Cur, individual animals) stood at 261 ng/mL. Also, in data set [1] (male, Sprague-Dawley, plasma, iv, 40 mg/kg, i.v., 40 mg/kg, 0.17 h, Rat1-Rat5, read-out: plasma concentration of Cur, individual animals), the concentration at 0.17 h came out at 220 ng/mL. Besides, the concentration at 0.33 h in data set [1] (male, Sprague-Dawley, plasma, iv, 40 mg/kg, i.v., 40 mg/kg, 0.33 h, Rat1-Rat5, read-out: plasma concentration of Cur, individual animals) is 181 ng/mL. Further, the concentration at 0.5 h in data set [1] (male, Sprague-Dawley, plasma, iv, 40 mg/kg, i.v., 40 mg/kg, 0.5 h, Rat1-Rat5, read-out: plasma concentration of Cur, individual animals) was determined as 160 ng/mL. Moreover, the concentration at 1 h in data set [1] (male, Sprague-Dawley, plasma, iv, 40 mg/kg, i.v., 40 mg/kg, 1 h, Rat1-Rat5, read-out: plasma concentration of Cur, individual animals) was 85.2 ng/mL. Besides, the concentration at 2 h in data set [1] (male, Sprague-Dawley, plasma, iv, 40 mg/kg, i.v., 40 mg/kg, 2 h, Rat1-Rat5, read-out: plasma concentration of Cur, individual animals) was found to be 50.6 ng/mL. For the same molecule, in data set [1] (male, Sprague-Dawley, plasma, iv, 40 mg/kg, i.v., 40 mg/kg, 4 h, Rat1-Rat5, read-out: plasma concentration of Cur, individual animals), the concentration at 4 h turned out to be 25.9 ng/mL. Besides, in data set [1] (male, Sprague-Dawley, plasma, iv, 40 mg/kg, i.v., 40 mg/kg, 24 h, Rat1-Rat5, read-out: plasma concentration of Cur, individual animals), the concentration at 24 h turned out to be 8.3 ng/mL. Also, the “plasma concentration of Cur, individual animals” value in data set [1] (i.v., 40 mg/kg, 0.07 h) was 340.1 ng/mL and 337.1 ng/mL and 323.9 ng/mL and 342.5 ng/mL; in data set [1] (i.v., 40 mg/kg, 0.12 h) it was 255.2 ng/mL and 257.9 ng/mL and 258.8 ng/mL and 264.3 ng/mL; in data set [1] (i.v., 40 mg/kg, 0.17 h) it was 215.1 ng/mL and 212.7 ng/mL and 219.1 ng/mL and 237.5 ng/mL; in data set [1] (i.v., 40 mg/kg, 0.33 h), 192.4 ng/mL and 207.1 ng/mL and 170.5 ng/mL and 217.7 ng/mL; in data set [1] (i.v., 40 mg/kg, 0.5 h), 130.3 ng/mL and 126.5 ng/mL and 120.8 ng/mL and 194.6 ng/mL; in data set [1] (i.v., 40 mg/kg, 1 h) it was 96.5 ng/mL and 101.5 ng/mL and 102.2 ng/mL and 65.3 ng/mL. The “plasma concentration of Cur, individual animals” value was 63.9 ng/mL and 65.1 ng/mL and 75.3 ng/mL and 40.5 ng/mL in data set [1] (i.v., 40 mg/kg, 2 h); 35.9 ng/mL and 25.7 ng/mL and 32.9 ng/mL and 22.5 ng/mL in data set [1] (i.v., 40 mg/kg, 4 h); 10.2 ng/mL and 9.5 ng/mL and 8.5 ng/mL and 8.7 ng/mL in data set [1] (i.v., 40 mg/kg, 24 h).
As for `COc1cc(/C=C/C(=O)CC(=O)/C=C/c2ccc(O)c(OC)c2)ccc1O` [Curcumin], the logP result in data set [2] is recorded as “≈ 3”. For the same molecule, in data set [3], the solubility thermodynamic at 24 h is less than 0.1 µg/mL.

For orientation: Cmax means the maximum level reached in the sampled fluid or tissue. One may read the Tmax as the time from dosing to the highest level. By half-life is commonly meant the time in which the quantity being followed falls by half.
